Experimental data: patent publication US11084799B2, “Polymorph of benzamide compound and preparation method and applications thereof” (SHENYANG SINOCHEM AGROCHEMICALS R&D CO., LTD., priority 2016, dated 2021)
“Also recorded” adds a separate entry of the source.

Legend:
[1] = Dispersibility of 10% water suspending agent; assay type: physicochemical; settings: after normal temperature for 2 years and heat storage (54 ± 2° C./14 d)
From the text: (§1) The formulation includes the following composition: 10 parts of polymorph A of Compound 1 or polymorph B of Compound 1 obtained in above examples, 3 parts of sodium naphthalenesulfonate formaldehyde condensate, 3 parts of sodium salt of alkyl naphthalene sulfonic acid polycondensate, 0.1 part of white carbon black, 0.1 part of xanthan gum, 2 parts of pesticide emulsifier 0201B, 5 parts of glycol, 0.2 part of WJX-1 and water which is used to complement up to 100 parts by weight were successively added to a mixing tank for mixing. After conducting coarse grinding and homogenization through high shear, the mixture was grinded in a sand mill and detected the particle size of sanding materials through a sedimentograph. After the particle size meeting the standard requirements, the mixture was filtered to obtain 10% water suspending agent of polymorph A of Compound 1 or polymorph B of Compound 1.

[2] = Formulation sample (10% water suspending agent) kept at normal temperatures; assay type: physicochemical
From the text: as §1

[3] = Crystal form stability during long-term storage; assay type: physicochemical
From the text: (§2) The advantages of the polymorph A in aspects such as chemical stability, filterability, solubility, hygroscopicity, melting point, solid density and flowability can have a significant impact on the developments of the production method and a formulation and on the quality and efficacy of a plant treating agent. […] The stability is favorable for determination of consistency of Compound 1. These features enable the polymorph A of Compound 1 to be well suitable for preparing a long effective and stable solid formulation so that the polymorph A has stable content of active component.

[4] = Pourability of 10% water suspending agent; assay type: physicochemical
From the text: as §1

[5] = Hygroscopicity on exposure to changing air humidity; assay type: physicochemical; settings: exposed to changing air humidity
From the text: as §2

[6] = assay type: physicochemical
From the text: In the present invention, the slurry of the polymorph B of Compound 1 is heated in the presence of the solvent to convert into the polymorph A of Compound 1. The solvent is selected from the alcohol solvent and/or water. The alcohol solvent is selected from methanol, ethanol, n-propanol, isopropanol, n-butanol and n-pentanol. The adopted solvent can well convert the polymorph B into the polymorph A. In addition, the water as the solvent is well used to convert the polymorph B into the polymorph A. Furthermore, in the conversion process, at a temperature not more than 100° C., almost 100% conversion is completed at high yield within proper time. In the selection of the solvent, the water is selected to effectively reduce cost compared with the organic solvent. […] As an alternative, if the polymorph A with high concentration is in the water, then the polymorph A can be separated through evaporation of the water.

[7] = Particle size distribution of 10% water suspending agent; assay type: physicochemical
From the text: as §1

[8] = Suspensibility in processing of the formulation; assay type: physicochemical; settings: compared with polymorph B
From the text: (§3) The polymorph A also presents better performance than the compound 1 prepared by the method (example 5) in the patent WO02010003350A1 in the aspect of the physical properties of the formulation.

[9] = Heat storage (54 ± 2° C.) of 10% water suspending agent; assay type: physicochemical
From the text: as §1

[10] = Insecticidal activity (pharmacodynamic stability), polymorph A versus polymorph B; settings: compared with polymorph B
From the text: as §3

## CNC(=O)c1cc(Cl)cc(Cl)c1NC(=O)c1cc(Br)nn1-c1ncc(Cl)cc1Cl [Polymorph A, 3-bromo-N-[2,4-dichloro-6-[(methylamino)carbonyl]phenyl]-1-(3,5-dichloro-2-pyridinyl)-1H-pyrazole-5-carboxamide]
[1]
  Flowability (Dispersibility line): good dispersibility and good; also recorded: good flowability
[2]; 10% water suspending agent, after kept for two years
  Kept at normal temperatures: flowability of the formulation sample: suspending agent has good
[2]; 10% water suspending agent, after kept for two years, printed as almost unchanged
  Kept at normal temperatures: viscosity of the formulation sample: unchanged viscosity.
[3]
  Conversion into other crystal forms: does not convert into other crystal forms; also recorded: may not be converted into other crystal forms
  Stability: excellent stability
[4]; 10% water suspending agent
  Pourability (overall verdict): qualified.
  Pourability: flow / flowability of the formulation sample: good flowability; after
  Pourability: residues after washed: ≤ 0.5%; the pourability is
[4]; in the processing of the formulation, compared with polymorph B
  Pourability: better pourability
[5]
  Hygroscopicity: does not present obvious hygroscopicity
[6]
  Solubility in the water: very low solubility
[7]; 10% water suspending agent, after normal temperature for 2 years and heat storage (54 ± 2° C./14 d), printed as almost unchanged
  Particle size distribution: unchanged.
[8]
  Suspensibility: better suspensibility
[9]; 10% water suspending agent, after kept for 14 days at 54 ± 2° C.
  Heat storage (54 ± 2° C.): flowability of the formulation sample: agent has good flowability
[10]
  Insecticidal activity: better insecticidal activity

## CNC(=O)c1cc(Cl)cc(Cl)c1NC(=O)c1cc(Br)nn1-c1ncc(Cl)cc1Cl [Polymorph B, 3-bromo-N-[2,4-dichloro-6-[(methylamino)carbonyl]phenyl]-1-(3,5-dichloro-2-pyridinyl)-1H-pyrazole-5-carboxamide]
[2]; 10% water suspending agent, observed after kept for 2 h
  Kept at normal temperatures: state of the formulation sample of the suspending agent: suspending agent is solidified
[4]; 10% water suspending agent
  Pourability: flow / flowability of the formulation sample: suspending agent does not
  Pourability: residues after washed: unqualified.
[5]
  Hygroscopicity: obvious hygroscopicity
[7]; 10% water suspending agent, after kept at normal temperature for 1 week
  Particle size distribution: wide.
[9]; 10% water suspending agent, observed after heat storage for 1 h
  Heat storage (54 ± 2° C.): state of the formulation sample: solidified and could not shake.

## CNC(=O)c1cc(Cl)cc(Cl)c1NC(=O)c1cc(Br)nn1-c1ncc(Cl)cc1Cl [Compound 1 Prepared by the Method in WO2010003350A1] [3-bromo-N-[2,4-dichloro-6-[(methylamino)carbonyl]phenyl]-1-(3,5-dichloro-2-pyridinyl)-1H-pyrazole-5-carboxamide, reference compound]
[2]; suspending agent, after kept for 1 week
  Kept at normal temperatures: flowability of the formulation sample: suspending agent has poor
[4]; 10% water suspending agent
  Pourability: flow / flowability of the formulation sample: suspending agent has poor
  Pourability: residues after washed: unqualified.
[7]; suspending agent, no storage time stated
  Particle size distribution: distribution is wide.
[9]; suspending agent, observed after heat storage for 3 days
  Heat storage (54 ± 2° C.): state of the formulation sample: solidified and could not shake.
